32 compounds from patent US20230321100A1, “CD73 INHIBITOR AND APPLICATION THEREOF IN MEDICINE” (BETTA PHARMACEUTICALS CO., LTD, priority 2020, published 2023) can be followed below.

Broadly, the IC50 is the concentration at which inhibition is half-maximal. Broadly, the AUC is concentration integrated over time. The Cmax is the peak of the concentration-time curve. Usually Tmax stands for the time from dosing to the highest level.

The target in the first data set is T1, CD73 (Calu-6 cells) (Homo sapiens, UniProt P21589).
T1 construct: endogenous in cells; host or cells: Calu-6 cells
T1 sequence (P21589 27-549): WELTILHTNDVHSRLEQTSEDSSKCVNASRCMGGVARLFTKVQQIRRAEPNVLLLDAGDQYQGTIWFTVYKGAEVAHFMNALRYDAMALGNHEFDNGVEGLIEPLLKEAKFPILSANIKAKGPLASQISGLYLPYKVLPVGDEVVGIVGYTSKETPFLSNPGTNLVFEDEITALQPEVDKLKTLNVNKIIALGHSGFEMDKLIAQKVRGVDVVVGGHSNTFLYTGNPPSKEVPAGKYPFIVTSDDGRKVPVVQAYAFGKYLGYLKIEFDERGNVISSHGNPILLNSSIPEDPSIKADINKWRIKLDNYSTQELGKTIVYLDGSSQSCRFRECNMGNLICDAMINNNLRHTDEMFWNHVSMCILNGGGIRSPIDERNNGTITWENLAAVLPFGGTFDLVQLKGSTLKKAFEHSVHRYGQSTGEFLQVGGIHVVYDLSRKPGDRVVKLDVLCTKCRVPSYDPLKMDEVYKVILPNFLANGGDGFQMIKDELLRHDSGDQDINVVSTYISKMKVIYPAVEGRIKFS
Briefly: Enzymatic activity detection at the cellular level (Calu-6 cells, AMP substrate, Cell-titer Glo luminescence). The format is cell-based. As to conditions: enzymatic IC50 at the Calu-6 cell level, 30 min pre-incubation, 120 min at 37° C. As for the experimental part:
The Calu-6 cells were digested and re-suspended using TM buffer (25 mM Tris, 5 mM MgCl2, pH 7.5). Calu-6 cell suspension was seeded into 96 well cell culture plate, and the number of cells per well was 2.5×10^4, adding volume of 100 μL/well. Compound solution with gradient concentration was prepared by TM buffer, and 50 μL DMSO solution with different concentration was added into each pore cell. […] Pre-incubated in a shaker at 37° C. for 30 min. Each well was added with 50 μL 800 μM AMP solution. The shaker at 37° C. for 120 min was continued to incubate, then the 96-well plates were centrifuged and 50 μL supernatant was transferred to the new 96-well plates. […] The luminescence value was read by the multi-function enzymatic reader and converted into the inhibition percentage: Inhibition percentage=(1−reading/Max)*100. The “maximum value” was DMSO control. IC50 values were obtained by curve fitting with GraphPad Prism software.
Regarding `Cc1nnc(-c2c[nH]c(=O)[nH]c2=O)cc1[C@H]1C[C@@H]1C#Cc1ccccc1` [Compound 41, 5-(6-methyl-5-((1S,2S)-2-(phenylethynyl)cyclopropyl)pyridazin-3-yl)pyrimidine-2,4(1H,3H)-dione], the IC50 amounted to 7.5 nM.

Consider `C=C[C@H]1C[C@@H]1c1cc(-c2c[nH]c(=O)[nH]c2=O)nnc1C` [Compound 7, 5-(6-methyl-5-((1S,2R)-2-vinylcyclopropyl)pyridazin-3-yl)pyrimidine-2,4(1H,3H)-dione], for which 21 nM corresponded to half-maximal inhibition (IC50).

`O=c1[nH]cc(-c2cc(C3CC3c3ccc(C(F)(F)F)cc3)c(Cl)nn2)c(=O)[nH]1` (stereo not shown) [Compound 66] came in with an IC50 of 3.9 nM. Against the preceding compound, the IC50 is about 5.4-fold lower.

`O=c1[nH]cc(-c2cc([C@H]3C[C@@H]3c3ccccc3)cnn2)c(=O)[nH]1` [Compound 59, 5-(5-((1S,2S)-2-phenylcyclopropyl)pyridazin-3-yl)pyrimidine-2,4(1H,3H)-dione] registered an IC50 of 9.9 nM.

Turning to `Cc1cc(C)cc(C2CC2c2cc(-c3c[nH]c(=O)[nH]c3=O)nnc2Cl)c1` (stereo not shown) [Compound 63], the IC50 was determined as 19 nM.

As for `Cc1ccc(C2CC2c2cc(-c3c[nH]c(=O)[nH]c3=O)nnc2Cl)cc1` (stereo not drawn) [Compound 24, 5-(6-chloro-S-(2-(p-tolyl)cyclopropyl)pyridazin-3-yl)pyrimidine-2,4(1H,3H)-dione], the IC50 came to 5.2 nM.

Turning to `O=c1[nH]cc(-c2cc(C3CC3c3ccc(F)cc3)c(Cl)nn2)c(=O)[nH]1` (stereo not shown) [Compound 27, 5-(6-chloro-5-(2-(4-fluorophenyl)cyclopropyl)pyridazin-3-yl)pyrimidine-2,4(1H,3H)-dione], it took 1.8 nM to reach half-maximal inhibition (IC50). This IC50 is about 2.9-fold lower than that of the compound before.

The compound `N#Cc1ccc(C#C[C@H]2C[C@@H]2c2cc(-c3c[nH]c(=O)[nH]c3=O)nnc2Cl)nc1` [Compound 38, 6-(((1S,2S)-2-(3-chloro-6-(2,4-dioxo-1,2,3,4-tetrahydropyrimidin-5-yl)pyridazin-4-yl)cyclopropyl)ethynyl)nicotinonitrile] displayed an IC50 of 3.7 nM.

`O=c1[nH]cc(-c2cc([C@H]3C[C@@H]3C#Cc3ccccc3)c(Cl)nn2)c(=O)[nH]1` [Compound 18, 5-(6-chloro-5-((1S,2S)-2-(phenylethynyl)cyclopropyl)pyridazin-3-yl)pyrimidine-2,4(1H,3H)-dione] returned an IC50 of 5.6 nM.

`N#Cc1nnc(-c2c[nH]c(=O)[nH]c2=O)cc1C1CC1c1ccc(F)cc1` (stereo not shown) [Compound 35, 6-(2,4-dioxo-1,2,3,4-tetrahydropyrimidin-5-yl)-4-(2-(4-fluorophenyl)cyclopropyl)pyridazine-3-carbonitrile] yielded an IC50 of 1.1 nM.

With `COc1nnc(-c2c[nH]c(=O)[nH]c2=O)cc1[C@H]1C[C@@H]1C#Cc1ccc(C#N)cc1` [Compound 50], half-maximal inhibition (IC50) was put at 12.6 nM.

On to `O=c1[nH]cc(-c2cc(C3CC3c3ccc(F)c(C(F)(F)F)c3)c(Cl)nn2)c(=O)[nH]1` (stereo not shown) [Compound 69], for which the midpoint of inhibition, the IC50, lay at 13.4 nM. The IC50 values of the last two compounds are within 1.5-fold of each other.

Take `Cc1nnc(-c2c[nH]c(=O)[nH]c2=O)cc1[C@H]1C[C@@H]1/C=C/C#N` [Compound 10, (E)-3-((1R,2S)-2-(6-(2,4-dioxo-1,2,3,4-tetrahydropyrimidin-5-yl)-3-methylpyridazin-4-yl)cyclopropyl)acrylonitrile]: half-maximal inhibition (IC50) was put at 31 nM.

For `O=c1[nH]cc(-c2cc(C3CC3c3ccccc3)c(Cl)nn2)c(=O)[nH]1` (stereo not shown) [Compound 23, 5-(6-chloro-5-(2-phenylcyclopropyl)pyridazin-3-yl)pyrimidine-2,4(1H,3H)-dione], half-maximal inhibition (IC50) required 1.4 nM.

For the compound `Cc1nnc(-c2c[nH]c(=O)[nH]c2=O)cc1[C@H]1C[C@@H]1/C=C/c1ccccc1` [Compound 16, 5-(6-methyl-5-((1S,2R)-2-((E)-styryl)cyclopropyl)pyridazin-3-yl)pyrimidine-2,4(1H,3H)-dione], half-maximal inhibition (IC50) required 2.3 nM.

As for `N#Cc1cccc(C#C[C@H]2C[C@@H]2c2cc(-c3c[nH]c(=O)[nH]c3=O)nnc2Cl)c1` [Compound 19, 3-(((1S,2S)-2-(3-chloro-6-(2,4-dioxo-1,2,3,4-tetrahydropyrimidin-5-yl)pyridazin-4-yl)cvclopropyl)ethynyl)benzonitrile], the IC50 was found to be 2.99 nM.

On to `N#Cc1nnc(-c2c[nH]c(=O)[nH]c2=O)cc1C1CC1c1ccccc1` (stereo not shown) [Compound 34, 6-(2,4-dioxo-1,2,3,4-tetrahydropyrimidin-5-yl)-4-(2-phenylcyclopropyl)pyridazine-3-carbonitrile], for which inhibition was half-maximal at 5.9 nM (IC50).

In turn, `COc1nnc(-c2c[nH]c(=O)[nH]c2=O)cc1C1CC1c1ccc(F)cc1` (stereo not shown) [Compound 32, 5-(5-(2-(4-fluorophenyl)cyclopropyl)-6-methoxypyridazin-3-yl)pyrimidine-2,4(1H,3H)-dione] showed an IC50 of 5.4 nM.

In the case of `N#Cc1ccc(C#C[C@H]2C[C@@H]2c2cc(-c3c[nH]c(=O)[nH]c3=O)nnc2Cl)cc1` [Compound 45], the IC50 was determined as 1.5 nM.

Take `COc1nnc(-c2c[nH]c(=O)[nH]c2=O)cc1C1CC1c1ccc(C#N)cc1` (stereo not shown) [Compound 77, 4-(2-(6-(2,4-dioxo-1,2,3,4-tetrahydropyrimidin-5-yl)-3-methoxypyridazin-4-yl)cyclopropyl)benzonitrile]: the IC50 is 7.2 nM.

`O=c1[nH]cc(-c2cc(C3CC3c3ccc(F)cc3F)c(Cl)nn2)c(=O)[nH]1` (stereo not shown) [Compound 71] came in with an IC50 of 4.6 nM.

Regarding `O=c1[nH]cc(-c2cc(C3CC3c3ccc(C(F)(F)F)c(F)c3)c(Cl)nn2)c(=O)[nH]1` (stereo not shown) [Compound 68], half-maximal inhibition (IC50) required 15 nM. This IC50 is about 3.3-fold higher than that of the compound before.

Compound `N#Cc1cccc(C2CC2c2cc(-c3c[nH]c(=O)[nH]c3=O)nnc2Cl)c1` (stereo not shown) [Compound 26, 3-(2-(3-chloro-6-(2,4-dioxo-1,2,3,4-tetrahydropyrimidin-5-yl)pyridazin-4-yl)cyclopropyl)benzonitrile] came in with an IC50 of 8.7 nM.

For the compound `Cc1nnc(-c2c[nH]c(=O)[nH]c2=O)cc1C1CC1c1ccccc1` (stereo not shown) [Compound 22, 5-(6-methyl-5-(2-phenylcyclopropyl)pyridazin-3-yl)pyrimidine-2,4(1H,3H)-dione], half-maximal inhibition (IC50) was put at 22.7 nM.

Take `Cc1nnc(-c2c[nH]c(=O)[nH]c2=O)cc1C1CC1Cc1ccccc1` (stereo not shown) [Compound D2, reference compound]: the IC50 was found to be 114 nM.

As to `O=C(O)c1cccc(C2CC2c2cc(-c3c[nH]c(=O)[nH]c3=O)nnc2Cl)c1` (stereo not shown) [Compound 75], the IC50 was determined as 32 nM.

Compound `O=c1[nH]cc(-c2cc([C@H]3C[C@@H]3C#Cc3cccnc3)c(Cl)nn2)c(=O)[nH]1` [Compound 42] had an IC50 of 4.4 nM. This IC50 lies about 7.3-fold lower than the previous one.

The compound `O=c1[nH]cc(-c2cc(C3CC3c3cccc(C(F)(F)F)c3)c(Cl)nn2)c(=O)[nH]1` (stereo not shown) [Compound 67] came in with an IC50 of 7.3 nM.

In turn, `COc1nnc(-c2c[nH]c(=O)[nH]c2=O)cc1[C@H]1C[C@@H]1C#Cc1cccnc1` [Compound 53] had an IC50 of 2.4 nM.

For `COc1nnc(-c2c[nH]c(=O)[nH]c2=O)cc1[C@H]1C[C@@H]1/C=C/c1ccccc1` [Compound 20, 5-(6-methoxy-S-((1S,2R)-2-((E)-styryl)cyclopropyl)pyridazin-3-yl)pyrimidine-2,4(1H,3H)-dione], half-maximal inhibition (IC50) required 1.2 nM. This IC50 is about 2-fold lower than that of the compound before.

Compound `O=c1[nH]cc(-c2cc([C@@H]3C[C@H]3c3ccccc3)c(Cl)nn2)c(=O)[nH]1` [Compound D3, reference compound] registered an IC50 of 1430 nM.

Tested on in another data set: not listed separately
The experiment in a line: Pharmacokinetic evaluation in mice after intragastric administration (plasma concentration by LC/MS/MS). Format: in vivo. The settings on record: mouse, Balb/C female mice, single PO 10 mg/kg. As to the method: LC/MS/MS method was used to determine the plasma concentration of the embodiment compound at different time after intragastric administration in mice. Study the pharmacokinetic behavior of the compound in mice and evaluate its pharmacokinetic characteristics.
Methods: A single PK study (PO, 10 mg/kg) was performed on healthy Balb/C female mice (about 20 g) purchased from Beijing Vital River Laboratory Animal Technology Co., Ltd. About 1 hour before administration, a certain amount of drug was weighed and added with 5% DMSO and 95% hydroxypropyl betascyclodextrin (HP-β-CD) solution to form a colorless and clear solution. HP-β-CD solution is a 20% HP-β-CD solution prepared by adding HP-p-CD powder into 0.9% normal saline. Intragastric administration was performed at the dosage volume of 10 mL/kg, and blood was collected through the orbital venous plexus of mice. The blood collection time points were as follows: At 0.25, 0.5, 1.0, 2.0, 4.0, 7.0 and 24.0 hours before and after drug administration, 100 uL whole blood to K2EDTA anticoagulant tubes were taken at each time point, and the collected whole blood samples were centrifuged at 4000 rpm for 10 min. The plasma was separated and stored in the refrigerator at −80° C.
The above plasma samples were added to the pure acetonitrile solution containing the inner target for protein precipitation pre-treatment, centrifugation was performed at 10000 rpm for 10 min, and the supernatant was taken, mixed with water 1:1, and 10 μL to LC-MS/MS was used for detection. The linear range of compounds detected in plasma samples was 1-1000 ng/mL, and the data results were as follows:
The compound of the invention has good pharmacokinetic absorption and obvious pharmacokinetic advantages.
With `Cc1nnc(-c2c[nH]c(=O)[nH]c2=O)cc1[C@H]1C[C@@H]1C(C)C` [Compound D1, reference compound], the AUC is 677 ng·h/mL, the Cmax was 547 ng/mL and the Tmax stood at 30 min.
